From patent US9833497B2, “Human originated EGF domain proteins and use of the same” (CHENGDU SOURCEBIO LIMITED-LIABILITY COMPANY, priority 2013, dated 2017)

Legend:
Assay type in all cases: cell-based
Moraxella catarrhalis = assay: MIC against Gram-negative bacteria: Moraxella catarrhalis; conditions: 5×10^5 CFU/mL; for MIC M. catarrhalis: 96-well plate, 37° C., 10 h
Outline: (§1)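 MIC, the lowest recombinant protein concentration giving no bacterial growth, found by two-fold serial dilution of human EGF-domain proteins in triplicate. Inoculum 5×10^5 CFU/mL in LB from cultures at McFarland 0.5; plates incubated at 37° C, 175 rpm shaking.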

Enterobacter cloacae = assay: MIC against Gram-negative bacteria: Enterobacter cloacae; conditions: 5×10^5 CFU/mL; for MIC E. cloacae: 96-well plate, 37° C., 10 h
Outline: as §1

Serratia marcescens = assay: MIC against Gram-negative bacteria: Serratia marcescens; conditions: 5×10^5 CFU/mL; for MIC S. marcescens: 96-well plate, 37° C., 10 h
Outline: as §1

Aeromonas hydrophila = assay: MIC against Gram-negative bacteria: Aeromonas hydrophila; conditions: 5×10^5 CFU/mL; for MIC A. hydrophila: 96-well plate, 37° C., 10 h
Outline: as §1

Proteus mirabilis = assay: MIC against Gram-negative bacteria: Proteus mirabilis; conditions: 5×10^5 CFU/mL; for MIC P. mirabilis: 96-well plate, 37° C., 10 h
Outline: as §1

Citrobacter diversus = assay: MIC against Gram-negative bacteria: Citrobacter diversus; conditions: 5×10^5 CFU/mL; for MIC C. diversus: 96-well plate, 37° C., 10 h
Outline: as §1

E. coli BL21 = assay: MIC against Gram-negative bacteria: E. coli BL21; conditions: 5×10^5 CFU/mL; for MIC E. coli BL21: 96-well plate, 37° C., 10 h
Outline: as §1

Proteus vulgaris = assay: MIC against Gram-negative bacteria: Proteus vulgaris; conditions: 5×10^5 CFU/mL; for MIC P. vulgaris: 96-well plate, 37° C., 10 h
Outline: as §1

Klebsiella pneumonia = assay: MIC against Gram-negative bacteria: Klebsiella pneumonia; conditions: 5×10^5 CFU/mL; for MIC K. pneumonia: 96-well plate, 37° C., 10 h
Outline: as §1

E. coli DH5α = assay: Antibacterial activity: MIC and growth curve against E. coli DH5α in 96-well plate; conditions: minimal inhibitory concentration against E. coli DH5α; 96-well plate, 5×10^5 CFU/mL, 37° C., judged after 8 h
Outline: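 MIC taken as lowest protein level with no bacterial growth, tracked by A600 every 30 min during 37 °C, 175 rpm culture. Two-fold protein series 50-12.5 μg/mL final, triplicate wells, against 5×10^5 CFU/mL of LB-washed mid-log cells.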

Pseudomonas aeruginosa = assay: MIC against Gram-negative bacteria: Pseudomonas aeruginosa; conditions: 5×10^5 CFU/mL; for MIC P. aeruginosa: 96-well plate, 37° C., 10 h
Outline: as §1

[1] = M. catarrhalis, 10 h cultivation at 37° C.
[2] = E. cloacae, 10 h cultivation at 37° C.
[3] = S. marcescens, 10 h cultivation at 37° C.
[4] = A. hydrophila, 10 h cultivation at 37° C.
[5] = P. mirabilis, 10 h cultivation at 37° C.
[6] = C. diversus, 10 h cultivation at 37° C.
[7] = E. coli BL21, 10 h cultivation at 37° C.
[8] = P. vulgaris, 10 h cultivation at 37° C.
[9] = K. pneumonia, 10 h cultivation at 37° C.
[10] = P. aeruginosa, 10 h cultivation at 37° C.

Substance | MIC (Moraxella catarrhalis; [1]) [µg/mL] | MIC (Enterobacter cloacae; [2]) [µg/mL] | MIC (Serratia marcescens; [3]) [µg/mL] | MIC (Aeromonas hydrophila; [4]) [µg/mL] | MIC (Proteus mirabilis; [5]) [µg/mL] | MIC (Citrobacter diversus; [6]) [µg/mL] | MIC (E. coli BL21; [7]) [µg/mL] | MIC (Proteus vulgaris; [8]) [µg/mL] | MIC (Klebsiella pneumonia; [9]) [µg/mL] | MIC (E. coli DH5α) [µg/mL] | MIC (Pseudomonas aeruginosa; [10]) [µg/mL] | MIC M. catarrhalis (Moraxella catarrhalis) [µg/mL] | MIC E. cloacae (Enterobacter cloacae) [µg/mL] | MIC S. marcescens (Serratia marcescens) [µg/mL] | MIC A. hydrophila (Aeromonas hydrophila) [µg/mL] | MIC P. mirabilis (Proteus mirabilis) [µg/mL] | MIC C. diversus (Citrobacter diversus) [µg/mL] | MIC E. coli BL21 (E. coli BL21) [µg/mL] | MIC P. vulgaris (Proteus vulgaris) [µg/mL] | MIC K. pneumonia (Klebsiella pneumonia) [µg/mL] | further results
PRT435 (DMDECSFSEFLCQHECVNQPGTYFCSCPPGYILLDDNRSCQ; listed as Homo sapiens) | 25 | 12.5 | 50 | 25 | 12.5 | 12.5 | 25 | 25 | 25 | 12.5 | 12.5 | – | – | – | – | – | – | – | – | – | –
PRT728 (ATNPCKDNNGGCEQVCVLSHRTDNDGLGFRCKCTFGFQLDTDERHCI; listed as Homo sapiens) | – | – | – | – | – | – | – | – | – | 25 | – | 12.5 | 25 | 25 | 12.5 | 12.5 | 25 | 25 | 12.5 | 12.5 | MIC P. aeruginosa (Pseudomonas aeruginosa): 25 µg/mL
PRT827 (HLECSCHNNSTCEPATGTCRCGPGFYGQACE; listed as Homo sapiens) | – | – | – | – | – | – | – | – | – | 12.5 | – | – | – | – | – | – | – | – | – | – | MIC (μg/mL) M. catarrhalis (Moraxella catarrhalis; [1]): 25 µg/mL; MIC (μg/mL) E. cloacae (Enterobacter cloacae; [2]): 50 µg/mL; MIC (μg/mL) S. marcescens (Serratia marcescens; [3]): 50 µg/mL; MIC (μg/mL) A. hydrophila (Aeromonas hydrophila; [4]): 25 µg/mL; MIC (μg/mL) P. mirabilis (Proteus mirabilis; [5]): 50 µg/mL; MIC (μg/mL) C. diversus (Citrobacter diversus; [6]): 12.5 µg/mL; MIC (μg/mL) E. coli BL21 (E. coli BL21; [7]): 25 µg/mL; MIC (μg/mL) P. vulgaris (Proteus vulgaris; [8]): 12.5 µg/mL; MIC (μg/mL) K. pneumonia (Klebsiella pneumonia; [9]): 12.5 µg/mL; MIC (μg/mL) P. aeruginosa (Pseudomonas aeruginosa; [10]): 12.5 µg/mL
PRT415 (DINECLSISAPCPIGHTCINTEGSYTCQKNVPNCGRGYHLNEEGTRCV; listed as Homo sapiens) | 50 | 25 | 25 | 12.5 | 25 | 25 | 12.5 | 12.5 | 50 | 25 | 25 | – | – | – | – | – | – | – | – | – | –
PRT716 (TEYTCEDNVNPCGDDAYCNQIKTSVFCRCKPGFQRNMKNRQCE; listed as Homo sapiens) | – | – | – | – | – | – | – | – | – | 25 | – | 12.5 | 25 | 12.5 | 50 | 25 | 25 | 50 | 50 | 12.5 | MIC P. aeruginosa (Pseudomonas aeruginosa): 25 µg/mL
